Assay results published in patent publication US20110294698A1, “PROCESS FOR IDENTIFYING DRUGS FOR TREATING GASTROESOPHAGEAL REFLUX” (Temple University of the Commonwealth System of Higher …, priority 2008, published 2011).
“Also recorded” adds a separate entry of the source. Where two headings read alike, the source gives them in different places.

What was measured:
[1] = system: human clasp fibers; assay: carbachol induced contraction and relaxation of muscle strips, with potential inhibitors of relaxation; assay type: cell-based; details: for inhibition of carbachol induced relaxation: mecamylamine 10 μM, hexamethonium 100 μM, L-NAME 50 μM
[2] = system: human sling fibers; assay: nicotine or choline induced relaxation of bethanechol pre-contracted muscle strips; assay type: cell-based
[3] = system: human LEC fibers; assay: carbachol induced contraction and relaxation of muscle strips, with potential inhibitors of relaxation; assay type: cell-based; details: for inhibition of carbachol induced relaxation: mecamylamine 10 μM, hexamethonium 100 μM, L-NAME 50 μM
[4] = system: human sling fibers; assay: as above; assay type: cell-based; details: for inhibition of carbachol induced relaxation: mecamylamine 10 μM, hexamethonium 100 μM
[5] = system: human MEL fibers; assay: carbachol cumulative concentration response of muscle strips; assay type: cell-based
Source text: (§1) Beginning at the cardiac notch, the sling fiber complex was separated from the underlying submucosa by sharp dissection and this tissue plane was followed completely around the lesser curvature thus separating the clasp fibers from underlying submucosa. The clasp fiber complex was removed from the sling fiber complex by sharp dissection and cut into 10-12 smooth muscle strips approximately 3×3×8 mm with the long axis parallel to the direction of the muscle fibers. Similar muscle strips were cut from the middle of the sling fiber complex such that these strips were derived from the sling fibers in the cardiac notch. These smooth muscle strips were suspended in 10 ml muscle baths between platinum electrodes in Tyrode's solution continuously bubbled with 95% O2/5% CO2 and maintained at 37° C. The muscle strips were stretched to approximately 150% of their slack length which produced approximately 1 gram of basal tension and were then allowed to accommodate to the muscle bath for at least 60 minutes prior to investigation of contractile response.
(§2) Representative traces of the contractile response to 120 mM KCl in isotonic Tyrode's solution followed by a wash and 60 minute re-equilibration period then a cumulative concentration response curve to the selective muscarinic receptor agonist bethanechol (left) or the muscarinic and nicotinic agonist carbachol (right) is shown in FIG. 11. […]

[6] = system: human MEC fibers; assay: as above; assay type: cell-based
Source text: as §1, §2

[7] = system: pig clasp fibers; assay type: cell-based
[8] = system: human clasp fibers; assay: nicotine or choline induced relaxation of bethanechol pre-contracted muscle strips; assay type: cell-based
[9] = system: human LEC fibers; assay: as above; assay type: cell-based
[10] = system: human MEL fibers; assay: bethanechol induced contraction of muscle strips, with or without antagonist (Schild analysis); assay type: cell-based
[11] = system: human clasp fibers; assay: as above; assay type: cell-based
[12] = system: human LEC fibers; assay: as above; assay type: cell-based
[13] = target: M3 receptor (Homo sapiens, UniProt P20309); details: cited from earlier work
[14] = system: human MEC fibers; assay: bethanechol induced contraction of muscle strips, with or without antagonist (Schild analysis); assay type: cell-based
[15] = system: human sling fibers; assay: as above; assay type: cell-based
[16] = target: T1, M2 receptor (Homo sapiens, UniProt P08172); details: published value; cited from earlier work
T1 sequence (P08172 1-466): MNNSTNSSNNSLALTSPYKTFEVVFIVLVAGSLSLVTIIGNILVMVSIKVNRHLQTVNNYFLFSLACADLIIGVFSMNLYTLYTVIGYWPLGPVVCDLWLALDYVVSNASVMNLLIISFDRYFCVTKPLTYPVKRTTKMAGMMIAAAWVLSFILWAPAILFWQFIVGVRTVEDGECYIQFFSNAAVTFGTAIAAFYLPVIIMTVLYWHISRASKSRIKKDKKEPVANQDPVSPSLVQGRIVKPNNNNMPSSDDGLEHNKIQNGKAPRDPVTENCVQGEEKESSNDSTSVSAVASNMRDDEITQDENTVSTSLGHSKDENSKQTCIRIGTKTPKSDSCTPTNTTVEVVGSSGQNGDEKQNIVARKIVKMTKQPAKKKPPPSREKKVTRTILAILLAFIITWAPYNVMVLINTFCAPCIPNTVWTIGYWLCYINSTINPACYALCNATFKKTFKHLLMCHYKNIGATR

[17] = system: gastroesophageal junction high-pressure zone; set-up: species or system human; details: in vivo, iv
[18] = system: gastroesophageal junction high-pressure zone; details: in vivo; cited from earlier work
[19] = inhibitor 30 min, then carbachol rechallenge, others as in Table 6
[20] = cumulative concentration response
[21] = Barrett's esophagitis donors vs no GERD history
[22] = mean ± SEM, read-out: BETH pEC50 (bethanechol potency) (converted)

M3 receptor, sequence (P20309 whole entry): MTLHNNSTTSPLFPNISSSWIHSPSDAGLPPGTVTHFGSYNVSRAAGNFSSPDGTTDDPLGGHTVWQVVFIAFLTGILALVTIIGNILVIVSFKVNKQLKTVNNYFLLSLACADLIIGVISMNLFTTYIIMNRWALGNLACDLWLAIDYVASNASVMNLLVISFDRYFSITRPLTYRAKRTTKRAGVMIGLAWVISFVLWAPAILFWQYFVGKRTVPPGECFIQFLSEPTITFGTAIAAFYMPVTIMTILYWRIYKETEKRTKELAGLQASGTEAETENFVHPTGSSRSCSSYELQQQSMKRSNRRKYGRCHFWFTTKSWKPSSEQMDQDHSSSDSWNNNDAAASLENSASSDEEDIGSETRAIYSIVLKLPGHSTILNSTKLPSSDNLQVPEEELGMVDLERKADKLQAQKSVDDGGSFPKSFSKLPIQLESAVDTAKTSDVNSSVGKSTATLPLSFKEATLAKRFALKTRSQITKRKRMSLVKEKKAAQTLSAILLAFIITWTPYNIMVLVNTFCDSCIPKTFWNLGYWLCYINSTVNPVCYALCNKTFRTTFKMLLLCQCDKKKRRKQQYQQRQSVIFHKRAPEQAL

CC[N+](CC)(CC)CCOc1ccc(/C=C/c2ccccc2)cc1 [MG624]
inhibition of carbachol induced relaxation [1, 19]: blocked

COC(=O)[C@@H](N)CCCNC(=N)N[N+](=O)[O-] [L-NAME]
inhibition of nicotine induced relaxation [2]: inhibited
inhibition of carbachol induced relaxation ([3]; […]): inhibited
inhibition of carbachol induced relaxation ([1]; […], others as in Table 6): inhibited

C[N+](C)(C)CCOC(N)=O [carbachol]
carbachol induced relaxation, GERD compared to non-GERD controls [4]: no difference
carbachol induced relaxations, definite GERD ([4]; carbachol higher than 100 μM): greater
carbachol concentration at which relaxation response is observed [4, 20]: ≥ 300 µM
relaxation response to high carbachol concentration as a percentage of the maximal contractile response ([4]; mean±sem): 29±4%
maximal carbachol induced contraction, donors with GERD compared to donors without GERD ([4]; p<0.05): greater
contractility to carbachol, definite and probable GERD ([4]; vs no GERD history): increased
abrupt relaxation response to high carbachol concentrations [5]: not observed
abrupt relaxation response to high carbachol concentrations [6]: not observed
maximal contractile response to carbachol, definite GERD [3, 21]: decreased
carbachol induced relaxations, probable and definite GERD ([3]; carbachol higher than 100 μM): higher
carbachol concentration at which relaxation response is observed [3, 20]: ≥ 300 µM
relaxation response to high carbachol concentration as a percentage of the maximal contractile response ([3]; mean±sem): 54±9%
maximal contractile response to carbachol, definite GERD [1, 21]: decreased
carbachol induced relaxations, probable and definite GERD ([1]; carbachol higher than 100 μM): decreased
concentration above which abrupt relaxations were produced ([1]; increasing carbachol concentrations (Example 9)): higher than 30 uM
relaxation response to high carbachol concentration as a percentage of the maximal contractile response ([1]; mean±sem): 131±6%
carbachol-induced relaxations with high concentrations of carbachol, donors with GERD compared to non-GERD controls ([1]; p<0.05): significantly lower
maximal carbachol induced contraction, donors with GERD compared to non-GERD donors ([1]; p<0.05): significantly lower

CCCCCCCCCC[n+]1cccc([C@@H]2CCCN2C)c1.[I-] [NDNI]
inhibition of carbachol induced relaxation ([1]; […], others as in Table 6): blocked

CC(=O)O[C@H]1C[C@@H]2CC[C@@H]3[C@H](CC[C@@]4(C)[C@H]3C[C@H]([N+]3(C)CCCCC3)[C@@H]4OC(C)=O)[C@@]2(C)C[C@@H]1[N+]1(C)CCCCC1 [pancuronium]
inhibition of cholinergic agonist induced relaxation ([7]; […], 1E−5 molar): inhibited

NC1=N[C@H](O)[C@H]2[C@H]3O[C@]4(O)O[C@@H]([C@@H](O)[C@@]2(N1)[C@@H]4O)[C@]3(O)CO [tetrodotoxin]
inhibition of nicotine induced relaxation [2]: reduced the relaxation but not completely

C[N+](C)(C)CCCCCC[N+](C)(C)C [hexamethonium]
inhibition of carbachol induced relaxation ([4]; […], others as in Table 6): did not
inhibition of carbachol induced relaxation ([4]; […], others as in Table 6, listed as HEX): inhibit
inhibition of carbachol induced relaxation ([3]; […]): did not

CC(C)NCC(O)COc1cccc2ccccc12 (stereo not drawn) [propranolol]
inhibition of nicotine induced relaxation ([2]; human sling fibers, 30 μM bethanechol then 100 μM nicotine, inhibitor 30 min): inhibited

CNC1(C)C2CCC(C2)C1(C)C (stereo not drawn) [mecamylamine]
inhibition of nicotine induced relaxation ([2]; human sling fibers, 30 μM bethanechol then 1 mM nicotine, MLA 10 nM, MECA 10 μM): significantly inhibited
inhibition of nicotine induced relaxation ([8]; human clasp fibers, 30 μM bethanechol then 1 mM nicotine, MLA 10 nM, MECA 10 μM): significantly inhibited
inhibition of carbachol induced relaxation [4, 19]: inhibited
inhibition of carbachol induced relaxation ([4]; inhibitor 30 min, then carbachol rechallenge, others as in Table 6, listed as MEC): inhibit
inhibition of carbachol induced relaxation ([3]; inhibitor 30 min, then carbachol rechallenge): inhibited
inhibition of nicotine induced relaxation ([9]; human LEC fibers, 30 μM bethanechol then 1 mM nicotine, MLA 10 nM, MECA 10 μM): significantly inhibited
inhibition of carbachol induced relaxation [1, 19]: inhibited; also recorded: blocked; also recorded: only partially effective

CC(=O)OCC[N+](C)(C)C [acetylcholine]
concentration above which abrupt relaxations were produced ([7]; acetylcholine with physostigmine to block cholinesterase): higher than 30 uM

COc1ccccc1CNCCCCCCNCCCCCCCCNCCCCCCNCc1ccccc1OC [methoctramine]
potency (pA2) to inhibit bethanechol induced contraction [10]: 5.6±0.3
potency (pA2) to inhibit bethanechol induced contraction [11]: 6.3±0.2
potency (pA2) to inhibit bethanechol induced contraction [12]: 6.2±0.2
pKB M3 ([13]; published affinity value): 6.6
potency (pA2) to inhibit bethanechol induced contraction [14]: 5.7±0.2
potency (pA2) to inhibit bethanechol induced contraction [15]: 6.8±0.2

CN1CCCC1c1cccnc1 (stereo not drawn) [nicotine]
nicotine induced relaxation of bethanechol pre-contracted fibers ([2]; human sling fibers, 30 μM bethanechol, 100 μM nicotine): relax; also recorded: induces a relaxation
nicotine induced relaxation of bethanechol pre-contracted fibers ([8]; human clasp fibers): relax
nicotine induced relaxation of bethanechol pre-contracted fibers ([9]; human LEC fibers): relax

CCN1C[C@]2(COC(=O)c3ccccc3N3C(=O)C[C@H](C)C3=O)CC[C@H](OC)[C@@]34[C@@H]5C[C@H]6[C@H](OC)[C@@H]5[C@](O)(C[C@@H]6OC)[C@@](O)([C@@H](OC)[C@H]23)[C@@H]14 [methyllycaconitine]
inhibition of nicotine induced relaxation [2]: no inhibitory effect
inhibition of nicotine induced relaxation [8]: no inhibitory effect
inhibition of nicotine induced relaxation [9]: no inhibitory effect
inhibition of carbachol induced relaxation ([1]; […], others as in Table 6): did not
inhibition of carbachol induced relaxation ([1]; […], others as in Table 6, listed as methyllycaconotine): ineffective

CC(C[N+](C)(C)C)OC(N)=O (stereo not drawn) [bethanechol]
BETH MAX (maximal tension) ([10]; mean ± SEM): 1.37 ± 0.21 (n = 10)
EC50 [10, 22]: 15.8 µM
BETH MAX (maximal tension) ([11]; mean ± SEM): 1.20 ± 0.17 (n = 14) b d
EC50 [11, 22]: 1.58 µM
BETH MAX (maximal tension) ([12]; mean ± SEM): 0.92 ± 0.09 (n = 29)
EC50 [12, 22]: 6.46 µM
KA (agonist dissociation constant) for M3 ([13]; published value): 110 µM
BETH MAX (maximal tension) ([14]; mean ± SEM): 0.79 ± 0.07 (n = 24) e
EC50 [14, 22]: 45.7 µM
KA (agonist dissociation constant) for M2 [16]: 170 µM
BETH MAX (maximal tension) ([15]; mean ± SEM): 2.18 ± 0.24 (n = 37) c d e
EC50 [15, 22]: 10.5 µM

CN1[C@@H]2CC[C@H]1C[C@@H](OC(=O)C(CO)c1ccccc1)C2 (stereo partly drawn) [atropine]
effect on the pressure profile generated by placement of the plications [17]: abolished
effect on the resting sphincteric pressure [18]: dose-dependent partial suppression

COc1cc2c3cc1Oc1cc(ccc1O)C[C@@H]1c4c(cc(OC)c(O)c4Oc4ccc(cc4)C[C@@H]3N(C)CC2)CC[N+]1(C)C [tubocurarine]
inhibition of carbachol induced relaxation ([4]; […], others as in Table 6): inhibit
inhibition of carbachol induced relaxation ([1]; […], others as in Table 6): inhibited

C[N+](C)(C)CCCCCCCCCC[N+](C)(C)C [decamethonium]
inhibition of carbachol induced relaxation ([4]; […], others as in Table 6): inhibit
inhibition of carbachol induced relaxation ([1]; […], others as in Table 6): inhibited
